Laboratory results from article PMC11321563, “Enolase inhibitors as therapeutic leads for Naegleria fowleri infection” (PLOS Pathogens, 2024).
“Also recorded” adds a separate entry of the source. Read-outs that look alike come from different tables or passages of the source.

Experiments:
N. fowleri ENO (NfENO) = N. fowleri ENO (NfENO) (Naegleria fowleri, UniProt A0A6A5BXC3); assay: NfENO coupled enzyme activity/inhibition assay (PK/LDH, NADH fluorescence); assay type: biochemical
Protocol: (§1) ENO was assayed in triplicate using a coupled reaction to measure enzyme activity. Briefly, enzyme (50 nM) in assay buffer (100 mM HEPES, pH 8.0, 3.3 mM MgSO4) was loaded in black 96-well plates with or without inhibitors. To start the reaction, substrate buffer (3.75 mM 2-PG, 1.75 mM ADP, 1 U of pyruvate kinase/lactate dehydrogenase, and 0.4 mM NADH in assay buffer) was added to each well. The rate of reduction in fluorescence (excitation: 360 nm; emission: 460 nm), a measure of NAD production, was then scored on a Biotek Synergy H1 microplate reader every 20 seconds for 4 minutes. Kinetic analyses were performed with Prism 9.0 (GraphPad Software, San Diego, CA) using the Michaelis-Menten model. For assays involving inhibitors, compounds (in DMSO) were incubated at RT with enzyme in assay buffer […] for 15 minutes prior to initiation of the reaction by addition of the substrate. All assays were performed in triplicate with vehicle control (DMSO) included.

[1] = target: human ENO2 (gamma-enolase, HsENO2) (Homo sapiens, UniProt P09104); assay: Human ENO2 coupled enzyme inhibition assay; assay type: biochemical
Sequence of human ENO2 (gamma-enolase, HsENO2) (P09104 whole entry): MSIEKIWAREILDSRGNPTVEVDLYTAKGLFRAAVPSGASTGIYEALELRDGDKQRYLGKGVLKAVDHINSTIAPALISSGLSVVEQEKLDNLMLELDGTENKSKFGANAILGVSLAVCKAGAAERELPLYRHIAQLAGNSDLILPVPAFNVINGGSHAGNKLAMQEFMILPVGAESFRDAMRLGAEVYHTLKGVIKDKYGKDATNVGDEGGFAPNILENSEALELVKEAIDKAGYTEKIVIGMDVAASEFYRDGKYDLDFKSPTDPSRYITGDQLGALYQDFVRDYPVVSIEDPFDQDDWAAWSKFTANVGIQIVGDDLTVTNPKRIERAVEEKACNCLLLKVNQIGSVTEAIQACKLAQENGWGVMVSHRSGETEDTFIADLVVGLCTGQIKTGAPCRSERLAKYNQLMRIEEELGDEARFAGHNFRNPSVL
Protocol: as §1

[2] = system: N. fowleri strain Nf69 (ATCC 30215) trophozoites; assay: N. fowleri trophozoite viability, CellTiter-Glo, 48 hr; assay type: cell-based, Naegleria fowleri; details: for EC50: Naegleria fowleri
Protocol: N. fowleri strain Nf69 (ATCC 30215) or strain TY (ATCC 30107) trophozoites and N. gruberi strain NEG-M (ATCC 30224) were cultured axenically as previously described. Briefly, parasites were seeded at 1 x 10^4 cells/mL (N. fowleri) or 5 x 10^3 cells/mL (N. gruberi) in 100 μL of the indicated medium in white TC-treated 96-well plates (Thermo Scientific Nunc Microwell 136101). For assays under standard growth conditions ("+ glc"), N. fowleri cells were seeded into Nelson’s Complete Media (NCM, 0.17% liver infusion broth (BD Difco, Franklin Lakes, NJ), 0.17% glucose, 0.012% sodium chloride, 0.0136% potassium phosphate monobasic, 0.0142% sodium phosphate dibasic, 0.0004% calcium chloride, 0.0002% magnesium sulfate, 10% heat-inactivated fetal bovine serum (FBS), 1% penicillin-streptomycin) at 37°C. For assays in modified medium ("-glc/+gly"), cells were seeded into the media without glucose but supplemented with 10 mM glycerol. For standard growth of N. gruberi, cells were seeded into PYNFH-complete media (1.0% peptone, 1.0% yeast extract, 0.1% yeast nucleic acid, 0.0015% folic acid, 0.0001% hemin, 0.0362% potassium phosphate monobasic, 0.05% disodium phosphate, 10% heat-inactivated fetal bovine serum (FBS), 1% penicillin-streptomycin) at 25°C. For determination of EC50 value, concentrations of drug ranging from 0.07826–5 μM were used. After culturing for 48 hr (37°C, 5% CO2 for N. fowleri, 25°C, 5% CO2 for N. gruberi) in the presence of compound or vehicle, plates were equilibrated to RT for 15 min and CellTiter Glo reagent (Promega, Madison, WI, USA) was added followed by orbital shaking for 2 min. After an additional incubation (RT, 10 min), luminescence was scored on a BioTek Synergy H1 mircoplate reader. Parasite density was scored and kinetic analyses were performed with Prism 9.0 (GraphPad Software, San Diego, CA) using the Michaelis-Menten model. All viability assays were performed in technical triplicates with at least three biological replicates.

[3] = HEK-293 cytotoxicity, CellTiter Blue, 48 hr; assay type: cell-based; details: human, HEK-293 cells (ATCC CRL-1573); HEK-293, 48 hr; no superscript in Fig 1; read-out: Human cell line CC50
Protocol: HEK-293 (ATCC CRL-1573) cells were cultured axenically in Dulbecco’s Modified Eagle Medium with 4.5g/L D-glucose, L-glutamine (Gibco 11965) and 10% fetal bovine serum (FBS) at 37°C, 5% CO2. […] After a 48 hr incubation (37°C, 5% CO2), CellTiter Blue reagent (Promega, Madison, WI, USA) was added to each well. After an additional 3-hour incubation (37°C, 5% CO2) with reagent, fluorescence was scored on a a BioTek Synergy H1 mircoplate reader and percent growth inhibition values were solved.

[4] = system: N. fowleri strain Nf69 (ATCC 30215) trophozoites; assay: N. fowleri trophozoite viability, CellTiter-Glo, 48 hr; assay type: cell-based; details: Naegleria fowleri, ATCC30215, read-out: EC50 after short exposure
Human cell line = details: read-out: Human cell line CC50, cited from earlier work
Balamuthia mandrillaris = Balamuthia mandrillaris growth; assay type: cell-based
N. fowleri trophozoites = assay: Unbiased metabolomics of amoebae after HEX treatment (2DLC-MS); assay type: cell-based, Naegleria fowleri; details: cells grown in glycerol, HEX-treated vs untreated
Protocol: For unbiased metabolomics analyses, N. fowleri trophozoites were grown to near 100% confluency in 6-well TC-treated plates (Thermo Scientific Nunclon Delta Surface 140685). […] Samples were then washed three times in RT PBS prior to the addition of ice-cold CH3CN. Plates were then incubated at –20°C for 20 min, followed by the addition of ice-cold nanopure H2O and removal of the solution to sterile microcentrifuge tubes. This process was repeated twice, and the total volume of extraction material was adjusted to 2.5 x 10^6 cell equivalents per sample. Tubes were stored at –80°C prior to analysis.
Each cell sample was vortexed with glass beads for 5 min in a MM200 Mix Grinder (Retsch USA, Newtown, PA, USA). The mixture was centrifuged at 14,000 rpm for 20 min at 4°C. The supernatant was transferred into a new tube and lyophilized overnight. The dried sample was reconstituted in 60 μL 50% CH3CN and analyzed in random order on a parallel two-dimensional liquid chromatography-mass spectrometry (2DLC-MS) system, a Thermo DIONEX UltiMate 3000 HPLC system (Thermo Fisher Scientific, Waltham, MA, USA) coupled with a Thermo Q Exactive HF Hybrid Quadrupole-Orbitrap Mass Spectrometer (Thermo Fisher Scientific, Waltham, MA, USA). […] Each sample was analyzed by the 2DLC-MS under both positive (+) and negative (–) modes to obtain full MS data for metabolite quantification. […]

[5] = system: intracranial orthotopic ENO1-deficient tumors; set-up: method as in PMID 33230295; details: cited from earlier work
[6] = set-up: method as in PMID 33230295; details: non-human primates, cited from earlier work
[7] = Intranasal dose-finding tolerability in uninfected CD rats; assay type: in vivo, rat; details: 1.6, 16, or 120 mg/kg HEX in PBS once daily for five days
[8] = system: N. fowleri strain 69 trophozoites; assay: Rat model of N. fowleri infection, nasal instillation treatment; assay type: in vivo, Naegleria fowleri
Excerpt: Twenty-four CD rats (12 females, 12 males, aged 42–48 days, Charles River) housed in pairs were infected by nasal instillation with 2.5 x 10^5 N. fowleri strain 69 trophozoites that had been isolated after passage through mice to ensure virulence. Rats were provided unlimited food and water throughout the duration of the experiment. The two groups consisted of equal numbers of males and females. […] Rodents were monitored carefully and euthanized when symptoms of infection, including failure to respond to stimuli or seizures, were evident. After 17 days, surviving animals were sacrificed and brains were removed to assess cure.

Entamoeba histolytica = Entamoeba histolytica growth; assay type: cell-based
ENO1-/- glioma cells = details: read-out: EC50 against ENO1-/- glioma cells; cited from earlier work
N. gruberi = N. gruberi growth; assay type: cell-based, Naegleria gruberi
Protocol: N. fowleri strain Nf69 (ATCC 30215) or strain TY (ATCC 30107) trophozoites and N. gruberi strain NEG-M (ATCC 30224) were cultured axenically as previously described. Briefly, parasites were seeded at 1 x 10^4 cells/mL (N. fowleri) or 5 x 10^3 cells/mL (N. gruberi) in 100 μL of the indicated medium in white TC-treated 96-well plates (Thermo Scientific Nunc Microwell 136101). For assays under standard growth conditions ("+ glc"), N. fowleri cells were seeded into Nelson’s Complete Media (NCM, 0.17% liver infusion broth (BD Difco, Franklin Lakes, NJ), 0.17% glucose, 0.012% sodium chloride, 0.0136% potassium phosphate monobasic, 0.0142% sodium phosphate dibasic, 0.0004% calcium chloride, 0.0002% magnesium sulfate, 10% heat-inactivated fetal bovine serum (FBS), 1% penicillin-streptomycin) at 37°C. For assays in modified medium ("-glc/+gly"), cells were seeded into the media without glucose but supplemented with 10 mM glycerol. […] After an additional incubation (RT, 10 min), luminescence was scored on a BioTek Synergy H1 mircoplate reader. Parasite density was scored and kinetic analyses were performed with Prism 9.0 (GraphPad Software, San Diego, CA) using the Michaelis-Menten model. […]

[9] = system: ENO1-rescued glioma and other control cells; set-up: method as in PMID 33230295; details: cited from earlier work
[10] = set-up: method as in PMID 33230295; details: rats; cited from earlier work
[11] = 15 min preincubation with compound, read-out: HsENO2 IC50
[12] = ATCC30215, 48 h, read-out: N. fowleri EC50
[13] = recombinant NfENO, 50 nM enzyme, 15 min preincubation with compound, read-out: NfENO IC50
[14] = value with superscript 3 in Fig 1, footnote not given, ref superscript 3

Sequence of N. fowleri ENO (NfENO) (A0A6A5BXC3 entry or part of it): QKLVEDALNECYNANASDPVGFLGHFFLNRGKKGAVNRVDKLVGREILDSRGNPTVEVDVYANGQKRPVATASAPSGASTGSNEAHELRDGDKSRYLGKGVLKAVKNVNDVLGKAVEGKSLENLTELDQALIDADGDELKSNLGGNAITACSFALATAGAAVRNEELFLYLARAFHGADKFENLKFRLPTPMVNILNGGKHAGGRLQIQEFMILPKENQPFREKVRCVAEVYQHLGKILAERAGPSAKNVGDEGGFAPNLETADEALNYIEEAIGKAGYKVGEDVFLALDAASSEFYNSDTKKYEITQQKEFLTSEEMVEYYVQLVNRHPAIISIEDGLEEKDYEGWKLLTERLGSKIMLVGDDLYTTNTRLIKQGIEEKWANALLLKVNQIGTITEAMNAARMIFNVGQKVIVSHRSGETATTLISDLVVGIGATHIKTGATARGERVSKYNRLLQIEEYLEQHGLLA

## O=C(O)[C@@H](CO)OP(=O)(O)O [2-PG, 2-phosphoglycerate]
N. fowleri ENO (NfENO); truncation residues 44–512, NafoA.00379.a.B5.PW38978, read-out: apparent KM for 2-PG
  Km: 923 ± 0.336 µM

## O=C1C(P(=O)(O)O)CCN1OCc1ccccc1 (centres unmarked) [Benzyl- deoxy- SF2312]
[1]; [11]
  IC50: > 10000 nM
[2]; [12]
  EC50: > 10000 nM
N. fowleri ENO (NfENO); [13]
  IC50: > 10000 nM

## O=C1C(P(=O)(O)O)CCCCN1OCc1ccccc1 (centres unmarked) [Benzyl-HEPTA]
[1]; [11]
  IC50: > 10000 nM
[2]; [12]
  EC50: > 10000 nM
N. fowleri ENO (NfENO); [13]
  IC50: > 10000 nM

## O=C1C(P(=O)(O)O)CCCN1OCc1ccccc1 (centres unmarked) [BenzylHEX]
[1]; [11]
  IC50: > 10000 nM
[2]; [12]
  EC50: > 10000 nM
N. fowleri ENO (NfENO); at 10 μM
  impact on NfENO: no impact
N. fowleri ENO (NfENO); [13]
  IC50: > 10000 nM

## CC(C)OC(=O)[C@H](C)NP(=O)(OCOC(=O)C(C)(C)C)C1CCCN(O)C1=O (some centres unmarked) [CDP25]
[2]; [12]
  EC50: 310 ± 150 nM
[3]
  CC50 at 48 h: > 5000 nM
N. fowleri ENO (NfENO)
  IC50: > 10000 nM

## O=C1C(P(=O)(O)O)CCN1O (centres unmarked) [Deoxy-SF2312, (1-hydroxy-2-oxopyrrolidin-3-yl) phosphonic acid]
[1]
  IC50: 100 ± 40 nM
[1]; ratio of IC50 values
  fold more potent against ENO2 than NfENO: more than 10 fold
[2]; [12]
  EC50: 950 ± 200 nM
[3]
  CC50 at 48 h: > 200000 nM
N. fowleri ENO (NfENO)
  IC50: 1200 ± 470 nM

## O=C1C(P(=O)(O)O)CCCCN1O (centres unmarked) [HEPTA, (1-hydroxy-2-oxoazepan-3-yl) phosphonic acid]
[1]
  IC50: 5800 ± 880 nM
[2]; [12]
  EC50: > 10000 nM
N. fowleri ENO (NfENO)
  IC50: 4700 ± 1400 nM

## O=C1C(P(=O)(O)O)CCCN1O (centres unmarked) [HEX, (1-hydroxy-2-oxopiperidin-3-yl) phosphonic acid]
[4]
  EC50: 8060 ± 2600 nM
Human cell line; [14]
  CC50: > 300000 nM
Balamuthia mandrillaris
  impact on growth: no impact; also recorded: inactive
[1]
  IC50: 360 ± 40 nM
N. fowleri trophozoites
  decrease in pyruvate levels: ~50%
[2]; [12]
  EC50: 210 ± 20 nM
[2]; ATCC30215, 336 h, read-out: EC50 of trophozoites cultured from brain of HEX-treated rodent
  EC50: 90 ± 40 nM
[2]; ATCC30215, 336 h, read-out: EC50 of trophozoites cultured from brain of PBS-treated (Vehicle) rodent
  EC50: 100 ± 80 nM
[2]; ATCC30215, 504 h, read-out: EC50 after removal of selection
  EC50: 110 ± 10 nM
[2]; ATCC30215, read-out: EC50 in glycerol medium
  EC50: 2500 ± 110 nM
[2]; ATCC30215, read-out: EC50 of HEX-adapted amoebae
  EC50: 570 ± 300 nM
[5]
  intracranial tumor growth: almost completely inhibited intracranial tumor growth
[6]; IP 300 mg/kg, for several hours
  plasma concentrations: about 750 μM
[6]; IP
  IP dose tolerated without adverse effects: 300 mg/kg
[7]
  adverse effects of intranasal instillation: none of the rats had any noticeable reaction to treatment
[8]; HEX 3 mg/kg nasal instillation for 10 days, >50% of the population survived
  median survival time: indeterminable; also recorded: undefined
[8]; day 11, HEX 3 mg/kg nasal instillation once a day for 10 days from day 2
  animals remaining at conclusion of treatment: 11 of 12
[8]; of the eight HEX-treated survivors
  survivors with brains positive for amoebae by culture: six of the eight and six
Entamoeba histolytica
  impact on growth: no impact
ENO1-/- glioma cells
  EC50: 1300 nM
N. gruberi
  impact on growth: no impact
N. fowleri ENO (NfENO)
  IC50: 140 ± 40 nM
  mode of NfENO inhibition: competitive inhibitor
[9]
  CC50: > 300000 nM
[10]
  plasma elimination half-life: about 60 minutes

## CC(C)(C)C(=O)OCOP(=O)(OCOC(=O)C(C)(C)C)C1CCCN(O)C1=O (centres unmarked) [POMHEX]
Human cell line; [14]
  CC50: > 4900 nM
[1]; [11]
  IC50: > 10000 nM
[2]; [12]
  EC50: 700 ± 100 nM
N. fowleri ENO (NfENO); [13]
  IC50: > 10000 nM

## CC(C)(C)C(=O)OCOP(=O)(OCOC(=O)C(C)(C)C)C1CC(O)N(O)C1=O (centres unmarked) [POMSF]
[1]; [11]
  IC50: > 10000 nM
[2]; EC50 ratio
  increase in amoebicidal potency relative to SF2312: about 2.4 fold
[2]; [12]
  EC50: 660 ± 90 nM
N. fowleri ENO (NfENO); [13]
  IC50: > 10000 nM

## O=C1C(P(=O)(O)O)CC(O)N1O (centres unmarked) [SF2312, (1,5-dihydroxy-2-oxopyrrolidin-3-yl) phosphonic acid, reference compound]
Human cell line; value with superscript 1 in Fig 1, footnote not given, ref superscript 1
  CC50: > 200000 nM
[1]
  IC50: 630 ± 10 nM
[2]; [12]
  EC50: 1600 ± 110 nM
N. fowleri ENO (NfENO)
  IC50: 310 ± 70 nM
